{"source": "paper PMC8740163", "about": "“Voltage-Gated Sodium Channel Modulation by a New Spider Toxin Ssp1a Isolated From an Australian Theraphosid” (Frontiers in Pharmacology, 2021)", "key": {"[1]": {"molecular_target": "hNaV1.7 (Homo sapiens, UniProt Q15858)", "sequence (Q07699 19-218)": "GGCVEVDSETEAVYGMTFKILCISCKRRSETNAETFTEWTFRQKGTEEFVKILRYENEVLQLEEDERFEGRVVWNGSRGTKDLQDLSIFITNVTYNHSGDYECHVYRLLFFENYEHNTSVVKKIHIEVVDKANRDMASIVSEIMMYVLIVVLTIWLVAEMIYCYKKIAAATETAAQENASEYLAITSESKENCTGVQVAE", "sequence (Q15858 whole entry)": "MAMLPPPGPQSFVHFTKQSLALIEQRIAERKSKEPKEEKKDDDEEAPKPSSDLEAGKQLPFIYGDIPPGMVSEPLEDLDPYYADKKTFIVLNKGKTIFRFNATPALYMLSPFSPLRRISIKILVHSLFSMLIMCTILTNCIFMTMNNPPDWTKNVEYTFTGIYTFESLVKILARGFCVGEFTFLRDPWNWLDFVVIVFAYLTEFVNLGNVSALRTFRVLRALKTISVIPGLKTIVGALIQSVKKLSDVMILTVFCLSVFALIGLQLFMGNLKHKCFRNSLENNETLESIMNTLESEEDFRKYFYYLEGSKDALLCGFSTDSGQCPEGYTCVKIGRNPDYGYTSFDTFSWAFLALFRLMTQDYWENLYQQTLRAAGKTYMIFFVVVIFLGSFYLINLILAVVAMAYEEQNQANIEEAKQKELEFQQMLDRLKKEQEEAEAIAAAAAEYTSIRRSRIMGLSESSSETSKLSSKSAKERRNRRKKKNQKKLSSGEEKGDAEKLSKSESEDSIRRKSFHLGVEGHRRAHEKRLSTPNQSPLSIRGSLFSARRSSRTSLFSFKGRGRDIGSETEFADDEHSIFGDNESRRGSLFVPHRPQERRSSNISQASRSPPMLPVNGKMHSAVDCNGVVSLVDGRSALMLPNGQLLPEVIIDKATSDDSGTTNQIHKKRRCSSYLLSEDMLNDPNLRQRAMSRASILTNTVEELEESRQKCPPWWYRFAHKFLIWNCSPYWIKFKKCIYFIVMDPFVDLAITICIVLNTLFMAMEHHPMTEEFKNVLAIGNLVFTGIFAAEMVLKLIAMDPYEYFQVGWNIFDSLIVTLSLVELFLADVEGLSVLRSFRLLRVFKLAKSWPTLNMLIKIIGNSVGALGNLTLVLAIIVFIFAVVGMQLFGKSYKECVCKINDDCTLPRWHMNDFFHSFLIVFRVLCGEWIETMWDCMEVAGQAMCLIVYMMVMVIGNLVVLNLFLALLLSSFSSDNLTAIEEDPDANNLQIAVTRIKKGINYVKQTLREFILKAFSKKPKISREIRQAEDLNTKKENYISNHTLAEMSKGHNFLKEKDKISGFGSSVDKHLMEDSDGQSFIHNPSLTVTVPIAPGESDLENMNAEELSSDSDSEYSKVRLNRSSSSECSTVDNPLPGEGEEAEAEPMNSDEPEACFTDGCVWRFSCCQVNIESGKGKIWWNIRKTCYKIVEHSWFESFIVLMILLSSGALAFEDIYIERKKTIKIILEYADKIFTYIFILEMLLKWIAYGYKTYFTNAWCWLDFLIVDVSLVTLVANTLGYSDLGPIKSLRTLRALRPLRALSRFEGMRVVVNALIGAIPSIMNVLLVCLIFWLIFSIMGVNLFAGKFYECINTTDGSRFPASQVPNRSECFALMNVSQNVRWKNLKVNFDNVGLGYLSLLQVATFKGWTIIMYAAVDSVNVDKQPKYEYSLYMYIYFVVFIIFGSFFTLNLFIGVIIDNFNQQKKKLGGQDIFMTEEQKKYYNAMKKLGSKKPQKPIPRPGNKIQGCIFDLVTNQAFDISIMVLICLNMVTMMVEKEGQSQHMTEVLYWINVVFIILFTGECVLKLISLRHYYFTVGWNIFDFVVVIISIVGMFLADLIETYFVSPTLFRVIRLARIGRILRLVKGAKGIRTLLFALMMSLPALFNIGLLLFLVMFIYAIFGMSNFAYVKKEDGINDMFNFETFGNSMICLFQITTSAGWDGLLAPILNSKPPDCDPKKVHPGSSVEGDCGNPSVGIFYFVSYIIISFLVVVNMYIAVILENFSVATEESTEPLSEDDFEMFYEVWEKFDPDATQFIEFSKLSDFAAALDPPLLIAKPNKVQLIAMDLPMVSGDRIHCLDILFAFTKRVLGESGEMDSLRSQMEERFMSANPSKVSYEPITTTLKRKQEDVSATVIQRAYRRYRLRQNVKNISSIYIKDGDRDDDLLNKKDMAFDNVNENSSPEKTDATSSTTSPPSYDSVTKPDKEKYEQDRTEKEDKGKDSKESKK", "format": "cell-based"}, "[2]": {"test_system": "hNaV1.1, 1.2, 1.6, 1.7, 1.3", "conditions": "ref Gonçalves et al., 2018, cited from earlier work"}}, "data": [{"molecule": "NC1=N[C@H](O)[C@H]2[C@H]3O[C@]4(O)O[C@@H]([C@@H](O)[C@@]2(N1)[C@@H]4O)[C@]3(O)CO", "note": "[Tetrodotoxin (TTX), Tetrodotoxin]", "values": [{"measurement": "inhibition of veratridine + OD1 activated responses", "setting": "[1]", "result": "fully inhibited"}]}, {"molecule": "HwTx-IV: NaSpTx1 family spider toxin, 40% sequence identity with Ssp1a", "values": [{"measurement": "IC50", "setting": "[2]; range over hNaV1.1, 1.2, 1.6, 1.7, 1.3, read-out: IC50 at five hNaV subtypes", "result": "41 to 190", "unit": "nM"}, {"measurement": "rank order of potency", "setting": "[2]", "result": "hNaV1.1 > 1.2 > 1.6 > 1.7 > 1.3"}]}]}
